Results taken from article PMC8617627, “Novel DYRK1A Inhibitor Rescues Learning and Memory Deficits in a Mouse Model of Down Syndrome” (Pharmaceuticals, 2021).
Where two headings read alike, the source gives them in different places.

Key:
Test in all cases: Kinase profile (33P ATP filter binding)
Format in all cases: biochemical
Details in all cases: read-out: Remaining protein kinase activity
IKKb = target: T1, IKKb (Homo sapiens, UniProt O14920)
T1 sequence (O14920 1-756): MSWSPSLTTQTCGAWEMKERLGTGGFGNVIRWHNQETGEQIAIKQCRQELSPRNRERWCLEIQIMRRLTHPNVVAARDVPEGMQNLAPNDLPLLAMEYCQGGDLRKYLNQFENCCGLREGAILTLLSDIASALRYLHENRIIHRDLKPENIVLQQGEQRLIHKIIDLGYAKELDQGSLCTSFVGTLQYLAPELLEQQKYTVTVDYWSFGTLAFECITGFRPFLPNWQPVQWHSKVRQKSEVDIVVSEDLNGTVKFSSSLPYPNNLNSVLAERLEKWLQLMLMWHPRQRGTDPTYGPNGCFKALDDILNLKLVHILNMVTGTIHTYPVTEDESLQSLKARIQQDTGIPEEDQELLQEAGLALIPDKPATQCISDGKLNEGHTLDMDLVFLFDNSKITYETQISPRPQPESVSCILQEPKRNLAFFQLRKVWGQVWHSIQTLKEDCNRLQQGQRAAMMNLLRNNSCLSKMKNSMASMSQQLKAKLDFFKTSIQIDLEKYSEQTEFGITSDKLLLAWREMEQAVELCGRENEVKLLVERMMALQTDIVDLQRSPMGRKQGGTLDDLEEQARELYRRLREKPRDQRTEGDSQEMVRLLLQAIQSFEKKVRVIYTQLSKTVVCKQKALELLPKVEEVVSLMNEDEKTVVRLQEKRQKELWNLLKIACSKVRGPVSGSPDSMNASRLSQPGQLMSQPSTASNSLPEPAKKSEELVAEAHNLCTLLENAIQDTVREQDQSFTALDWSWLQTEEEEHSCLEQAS

TLK1 = target: T2, TLK1 (Homo sapiens, UniProt Q9UKI8)
T2 sequence (Q9UKI8 1-766): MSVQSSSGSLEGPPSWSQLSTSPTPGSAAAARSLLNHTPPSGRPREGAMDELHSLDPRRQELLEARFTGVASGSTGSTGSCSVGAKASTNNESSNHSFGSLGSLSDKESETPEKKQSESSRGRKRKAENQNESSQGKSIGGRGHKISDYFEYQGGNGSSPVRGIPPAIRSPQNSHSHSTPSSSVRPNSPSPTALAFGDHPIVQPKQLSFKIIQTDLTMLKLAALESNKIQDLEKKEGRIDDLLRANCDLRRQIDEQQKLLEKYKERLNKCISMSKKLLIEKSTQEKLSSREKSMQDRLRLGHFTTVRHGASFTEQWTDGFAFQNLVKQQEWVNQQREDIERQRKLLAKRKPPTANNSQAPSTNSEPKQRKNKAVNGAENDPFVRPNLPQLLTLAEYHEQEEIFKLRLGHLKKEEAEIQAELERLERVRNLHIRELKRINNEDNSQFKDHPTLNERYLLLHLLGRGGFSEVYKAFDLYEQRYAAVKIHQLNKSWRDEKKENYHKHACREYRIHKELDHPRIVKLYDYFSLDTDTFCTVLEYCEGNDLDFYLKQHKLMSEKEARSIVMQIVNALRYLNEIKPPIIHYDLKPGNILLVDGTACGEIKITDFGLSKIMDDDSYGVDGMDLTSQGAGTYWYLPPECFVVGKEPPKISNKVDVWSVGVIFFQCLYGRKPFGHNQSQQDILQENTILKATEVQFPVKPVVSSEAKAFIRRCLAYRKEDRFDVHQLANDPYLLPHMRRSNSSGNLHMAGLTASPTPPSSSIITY

PRK2 = PRK2 (Homo sapiens, UniProt Q16513)
MKK6 = target: T3, MKK6 (Homo sapiens, UniProt P52564)
T3 sequence (P52564 1-334): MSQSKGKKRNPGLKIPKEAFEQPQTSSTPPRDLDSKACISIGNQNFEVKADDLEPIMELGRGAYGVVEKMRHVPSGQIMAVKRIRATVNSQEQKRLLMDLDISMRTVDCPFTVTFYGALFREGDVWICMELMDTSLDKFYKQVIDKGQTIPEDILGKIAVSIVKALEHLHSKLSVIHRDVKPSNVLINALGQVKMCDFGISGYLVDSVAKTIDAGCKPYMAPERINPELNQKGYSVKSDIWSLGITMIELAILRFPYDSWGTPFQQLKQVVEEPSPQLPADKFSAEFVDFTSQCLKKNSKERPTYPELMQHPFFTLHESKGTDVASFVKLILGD

p38g MAPK = target: T4, p38g MAPK (Homo sapiens, UniProt P53778)
T4 sequence (P53778 1-367): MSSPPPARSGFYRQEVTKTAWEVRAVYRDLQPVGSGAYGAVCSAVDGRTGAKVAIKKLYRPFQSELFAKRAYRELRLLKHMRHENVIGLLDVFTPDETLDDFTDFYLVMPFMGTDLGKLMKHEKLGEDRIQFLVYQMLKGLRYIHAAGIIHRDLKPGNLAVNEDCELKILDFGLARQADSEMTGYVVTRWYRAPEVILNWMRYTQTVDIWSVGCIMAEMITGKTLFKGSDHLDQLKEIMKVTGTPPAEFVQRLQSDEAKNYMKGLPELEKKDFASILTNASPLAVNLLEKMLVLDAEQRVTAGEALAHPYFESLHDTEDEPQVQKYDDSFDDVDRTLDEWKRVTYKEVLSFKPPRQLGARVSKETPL

EPH-A2 = EPH-A2 (Homo sapiens, UniProt P29317)
ABL = ABL (Homo sapiens, UniProt P00519)
Chain of ABL (P00519 whole entry): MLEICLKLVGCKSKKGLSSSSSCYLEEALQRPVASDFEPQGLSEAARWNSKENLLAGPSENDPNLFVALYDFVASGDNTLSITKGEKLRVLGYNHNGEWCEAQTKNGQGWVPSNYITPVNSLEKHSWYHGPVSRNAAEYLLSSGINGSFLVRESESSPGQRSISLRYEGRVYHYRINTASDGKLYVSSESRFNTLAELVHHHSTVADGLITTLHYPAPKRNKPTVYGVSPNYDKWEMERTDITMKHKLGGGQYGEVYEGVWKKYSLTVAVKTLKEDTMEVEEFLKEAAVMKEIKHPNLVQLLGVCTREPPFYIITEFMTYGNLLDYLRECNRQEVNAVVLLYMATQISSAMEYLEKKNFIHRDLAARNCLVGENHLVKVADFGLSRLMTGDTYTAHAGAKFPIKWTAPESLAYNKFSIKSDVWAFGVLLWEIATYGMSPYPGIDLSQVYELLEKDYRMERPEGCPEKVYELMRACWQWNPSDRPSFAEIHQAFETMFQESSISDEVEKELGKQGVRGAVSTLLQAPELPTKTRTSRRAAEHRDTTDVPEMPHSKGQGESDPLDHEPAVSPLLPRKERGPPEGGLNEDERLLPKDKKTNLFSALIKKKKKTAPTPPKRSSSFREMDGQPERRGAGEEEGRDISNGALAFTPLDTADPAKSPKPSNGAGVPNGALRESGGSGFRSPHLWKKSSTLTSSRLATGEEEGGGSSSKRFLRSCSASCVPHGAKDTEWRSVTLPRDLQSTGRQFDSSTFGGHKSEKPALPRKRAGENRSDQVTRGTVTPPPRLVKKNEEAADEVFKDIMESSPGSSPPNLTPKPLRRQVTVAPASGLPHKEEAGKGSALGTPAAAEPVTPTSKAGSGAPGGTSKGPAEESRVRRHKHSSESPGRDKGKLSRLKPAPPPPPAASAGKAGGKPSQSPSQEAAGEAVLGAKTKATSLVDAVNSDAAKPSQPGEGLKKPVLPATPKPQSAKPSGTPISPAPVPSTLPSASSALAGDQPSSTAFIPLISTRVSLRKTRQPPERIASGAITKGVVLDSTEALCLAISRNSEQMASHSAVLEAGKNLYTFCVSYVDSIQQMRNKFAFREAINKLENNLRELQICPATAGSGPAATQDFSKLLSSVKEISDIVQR

Chain of PRK2 (Q16513 whole entry, species assumed): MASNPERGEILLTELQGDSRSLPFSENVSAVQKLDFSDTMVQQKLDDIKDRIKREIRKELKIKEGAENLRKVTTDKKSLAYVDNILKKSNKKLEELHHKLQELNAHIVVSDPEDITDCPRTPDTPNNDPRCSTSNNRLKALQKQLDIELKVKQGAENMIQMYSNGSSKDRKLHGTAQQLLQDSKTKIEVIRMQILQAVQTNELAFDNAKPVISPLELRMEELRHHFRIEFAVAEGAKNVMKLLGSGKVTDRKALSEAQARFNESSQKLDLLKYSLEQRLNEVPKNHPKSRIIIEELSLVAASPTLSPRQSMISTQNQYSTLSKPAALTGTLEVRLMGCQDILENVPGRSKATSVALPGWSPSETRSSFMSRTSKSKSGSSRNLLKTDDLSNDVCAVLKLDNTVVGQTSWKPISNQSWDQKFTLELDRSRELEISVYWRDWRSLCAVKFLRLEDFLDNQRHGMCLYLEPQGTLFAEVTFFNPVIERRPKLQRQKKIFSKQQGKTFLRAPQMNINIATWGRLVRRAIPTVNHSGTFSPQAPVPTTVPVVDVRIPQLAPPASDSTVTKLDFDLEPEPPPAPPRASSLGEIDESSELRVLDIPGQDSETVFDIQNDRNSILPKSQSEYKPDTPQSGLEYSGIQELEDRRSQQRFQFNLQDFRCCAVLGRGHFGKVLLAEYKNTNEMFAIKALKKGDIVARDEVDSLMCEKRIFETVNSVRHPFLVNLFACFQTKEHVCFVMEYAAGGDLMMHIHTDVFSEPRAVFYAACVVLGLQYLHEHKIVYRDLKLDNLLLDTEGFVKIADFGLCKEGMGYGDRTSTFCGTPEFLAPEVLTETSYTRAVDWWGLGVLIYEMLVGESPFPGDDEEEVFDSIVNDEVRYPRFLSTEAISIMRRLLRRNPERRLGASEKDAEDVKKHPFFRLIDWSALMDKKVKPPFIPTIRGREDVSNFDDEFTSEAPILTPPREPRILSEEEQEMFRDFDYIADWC
Chain of EPH-A2 (P29317 24-976): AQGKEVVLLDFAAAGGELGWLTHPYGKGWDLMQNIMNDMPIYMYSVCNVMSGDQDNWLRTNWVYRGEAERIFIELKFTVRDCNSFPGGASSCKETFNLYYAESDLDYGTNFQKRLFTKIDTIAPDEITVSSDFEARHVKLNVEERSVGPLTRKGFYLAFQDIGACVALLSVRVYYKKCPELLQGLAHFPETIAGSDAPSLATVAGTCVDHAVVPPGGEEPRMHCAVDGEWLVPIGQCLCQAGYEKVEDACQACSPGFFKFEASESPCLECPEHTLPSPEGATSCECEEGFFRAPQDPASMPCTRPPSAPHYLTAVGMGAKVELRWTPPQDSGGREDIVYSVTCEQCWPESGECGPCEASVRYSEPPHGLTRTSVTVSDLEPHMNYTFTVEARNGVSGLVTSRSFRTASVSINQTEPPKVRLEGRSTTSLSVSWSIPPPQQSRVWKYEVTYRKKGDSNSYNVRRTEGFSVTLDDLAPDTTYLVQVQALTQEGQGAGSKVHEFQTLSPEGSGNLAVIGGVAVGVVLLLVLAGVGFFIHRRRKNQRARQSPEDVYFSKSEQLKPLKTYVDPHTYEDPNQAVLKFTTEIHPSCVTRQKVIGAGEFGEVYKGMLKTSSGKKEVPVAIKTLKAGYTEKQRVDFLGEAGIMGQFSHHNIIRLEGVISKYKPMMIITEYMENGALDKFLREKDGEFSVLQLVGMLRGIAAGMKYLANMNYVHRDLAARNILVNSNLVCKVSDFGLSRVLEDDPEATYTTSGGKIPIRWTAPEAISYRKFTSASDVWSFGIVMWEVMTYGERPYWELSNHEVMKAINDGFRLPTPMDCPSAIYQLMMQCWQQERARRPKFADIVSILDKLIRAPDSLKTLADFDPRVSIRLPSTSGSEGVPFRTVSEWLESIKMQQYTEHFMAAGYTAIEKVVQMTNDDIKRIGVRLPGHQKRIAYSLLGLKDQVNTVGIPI

SMILES: COc1ccc2sc(-c3cncc(NC(C)=O)c3)nc2c1 [PST-001, N-(5-(5-Methoxybenzo[d]thiazol-2-yl)pyridin-3-yl)acetamide]
- remaining activity at 1 µM (IKKb): 111%
- remaining activity at 100 µM (IKKb): 108%
- remaining activity at 1 µM (TLK1): 129%
- remaining activity at 100 µM (TLK1): 134%
- remaining activity at 1 µM (PRK2): 102%
- remaining activity at 100 µM (PRK2): 101%
- remaining activity at 1 µM (MKK6): 140%
- remaining activity at 100 µM (MKK6): 115%
- remaining activity at 1 µM (p38g MAPK): 125%
- remaining activity at 100 µM (p38g MAPK): 105%
- remaining activity at 1 µM (EPH-A2): 124%
- remaining activity at 100 µM (EPH-A2): 119%
- remaining activity at 1 µM (ABL): 97%
- remaining activity at 100 µM (ABL): 99%

SMILES: COc1ccc2sc(-c3cncc(N)c3)nc2c1 [compound 1, 5-(5-Methoxybenzo[d]thiazol-2-yl)pyridin-3-amine]
- remaining activity at 1 µM (IKKb; IKKb, 1 μM): 105%
- remaining activity at 100 µM (IKKb; IKKb, 100 μM): 38%
- remaining activity at 1 µM (TLK1; TLK1, 1 μM): 131%
- remaining activity at 100 µM (TLK1; TLK1, 100 μM): 115%
- remaining activity at 1 µM (PRK2; PRK2, 1 μM): 103%
- remaining activity at 100 µM (PRK2; PRK2, 100 μM): 74%
- remaining activity at 1 µM (MKK6; MKK6, 1 μM): 120%
- remaining activity at 100 µM (MKK6; MKK6, 100 μM): 118%
- remaining activity at 1 µM (p38g MAPK; p38g MAPK, 1 μM): 110%
- remaining activity at 100 µM (p38g MAPK; p38g MAPK, 100 μM): 37%
- remaining activity at 1 µM (EPH-A2; EPH-A2, 1 μM): 112%
- remaining activity at 100 µM (EPH-A2; EPH-A2, 100 μM): 90%
- remaining activity at 1 µM (ABL; ABL, 1 μM): 108%
- remaining activity at 100 µM (ABL; ABL, 100 μM): 46%
